From patent publication US20250282799A1, “SUBSTITUTED PYRIDO[4,3-d]PYRIMIDINES AS KRAS MODULATORS” (Alterome Therapeutics, Inc., priority 2023, published 2025)

System: KRAS G12V dependent lung adenocarcinoma cell line, NCI-H441
Test: Cellular pERK (Thr202/Tyr204) FRET/HTRF assay
Assay type: cell-based
Conditions: Homo sapiens, NCI-H441, cellular pERK (Thr202/Tyr204) HTRF, NCI-H441 cells
Summary of the method: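 Read-out is a wash-free FRET sandwich immunoassay for endogenous ERK1/2 phosphorylated on Thr202/Tyr204. Signal was measured in NCI-H441 lung adenocarcinoma cells after 1 hr compound exposure at 37 °C. IC50 values come from fitted concentration-response curves.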

SMILES | IC50
Nc1cc(Cl)c(C(F)(F)F)c(-c2ncc3c(N4CCCC[C@H]5[C@H](F)[C@H]54)nc(OC[C@@]45CCCN4C/C(=C/F)C5)nc3c2F)c1 [Example 371, 3-chloro-5-(8-fluoro-4-((1S,7R,8S)-8-fluoro-2-azabicyclo[5.1.0]octan-2-yl)-2-(((S,E)-2-(fluoromethylene)tetrahydro-1H-pyrrolizin-7a(5H)-yl)methoxy)pyrido[4,3-d]pyrimidin-7-yl)-4-(trifluoromethyl)aniline] | < 50 nM
C#Cc1c(F)ccc2cc(N)cc(-c3ncc4c(N5CCOC[C@H]6[C@H](F)[C@H]65)nc(OC[C@@]56CCCN5CC(=C)C6)nc4c3C)c12 [Example 425, 5-ethynyl-6-fluoro-4-(4-((1S,7S,8S)-8-fluoro-5-oxa-2-azabicyclo[5.1.0]octan-2-yl)-8-methyl-2-(((S)-2-methylenetetrahydro-1H-pyrrolizin-7a(5H)-yl)methoxy)pyrido[4,3-d]pyrimidin-7-yl)naphthalen-2-amine] | < 50 nM
C#Cc1c(F)ccc2cc(N)cc(-c3ncc4c(N5CCOC[C@H]6[C@H](F)[C@H]65)nc(OC[C@]56CC(=C)CN5CCC65CC5)nc4c3F)c12 [Example 171, 5-Ethynyl-6-fluoro-4-(8-fluoro-4-((1S,7S,8S)-8-fluoro-5-oxa-2-azabicyclo[5.1.0]octan-2-yl)-2-(((R)-6′-methylenetetrahydrospiro[cyclopropane-1,1′-pyrrolizin]-7a′(5′H)-yl)methoxy)pyrido[4,3-d]pyrimidin-7-yl)naphthalen-2-amine] | < 50 nM
C#Cc1c(F)ccc2cc(N)cc(-c3ncc4c(N5CCOC[C@H]6[C@H](F)[C@H]65)nc(OC[C@@]56CCCN5CC(=C(F)F)C6)nc4c3C)c12 [Example 428, 4-(2-(((S)-2-(difluoromethylene)tetrahydro-1H-pyrrolizin-7a(5H)-yl)methoxy)-4-((1S,7S,8S)-8-fluoro-5-oxa-2-azabicyclo[5.1.0]octan-2-yl)-8-methylpyrido[4,3-d]pyrimidin-7-yl)-5-ethynyl-6-fluoronaphthalen-2-amine] | < 50 nM

The remaining lines, values ahead:

IC50 | SMILES
50 to 500 nM | [2H]C([2H])(Oc1nc(N2CCOC[C@H]3[C@H](F)[C@H]32)c2cnc(-c3cc(N)c(F)cc3C(F)(F)F)c(F)c2n1)[C@@]12CCCN1C[C@H](F)C2 [Example 299, 2-fluoro-5-(8-fluoro-4-((1S,7S,8S)-8-fluoro-5-oxa-2-azabicyclo[5.1.0]octan-2-yl)-2-(((2R,7aS)-2-fluorotetrahydro-1H-pyrrolizin-7a(5H)-yl)methoxy-d2)pyrido[4,3-d]pyrimidin-7-yl)-4-(trifluoromethyl)aniline]
50 to 500 nM | [2H]C([2H])([2H])Oc1c(F)c(F)cc2cncc(-c3ncc4c(N5CCOC[C@H]6[C@H](F)[C@H]65)nc(OC([2H])([2H])[C@@]56CCCN5C[C@H](F)C6)nc4c3F)c12 [Example 136, (1S,7S,8S)-2-(7-(6,7-difluoro-5-(methoxy-d3)isoquinolin-4-yl)-8-fluoro-2-(((2R,7aS)-2-fluorotetrahydro-1H-pyrrolizin-7a(5H)-yl)methoxy-d2)pyrido[4,3-d]pyrimidin-4-yl)-8-fluoro-5-oxa-2-azabicyclo[5.1.0]octane]
50 to 500 nM | [2H]C([2H])(Oc1nc(N2CCC(=O)C[C@@H]3[C@H](F)[C@@H]32)c2cnc(-c3cc(N)cc4cc(F)c(F)c(C#C)c34)c(F)c2n1)[C@@]12CCCN1C[C@H](F)C2 [Example 194, (1R,7S,8S)-2-(7-(3-amino-8-ethynyl-6,7-difluoronaphthalen-1-yl)-8-fluoro-2-(((2R,7aS)-2-fluorotetrahydro-1H-pyrrolizin-7a(5H)-yl)methoxy-d2)pyrido[4,3-d]pyrimidin-4-yl)-8-fluoro-2-azabicyclo[5.1.0]octan-5-one]
500 to 10000 nM | [2H]C([2H])(Oc1nc(N2CCOC[C@@H]3[C@@H](F)[C@@H]32)c2cc(F)c(-c3nc(N)cc(C)c3C(F)(F)F)c(F)c2n1)[C@@]12CCCN1C[C@H](F)C2 [Example 176, 6-(6,8-difluoro-4-((1R,7R,8R)-8-fluoro-5-oxa-2-azabicyclo[5.1.0]octan-2-yl)-2-(((2R,7aS)-2-fluorotetrahydro-1H-pyrrolizin-7a(5H)-yl)methoxy-d2)quinazolin-7-yl)-4-methyl-5-(trifluoromethyl)pyridin-2-amine]
500 to 10000 nM | [2H]C([2H])(Oc1nc(N2CCOC[C@H]3[C@H](F)[C@H]32)c2cc(C(F)(F)F)c(-c3cc(N)cc4ccc(F)c(C#C)c34)c(F)c2n1)[C@@]12CCCN1C[C@H](F)C2 [Example 328, 5-ethynyl-6-fluoro-4-(8-fluoro-4-((1S,7S,8S)-8-fluoro-5-oxa-2-azabicyclo[5.1.0]octan-2-yl)-2-(((2R,7aS)-2-fluorotetrahydro-1H-pyrrolizin-7a(5H)-yl)methoxy-d2)-6-(trifluoromethyl)quinazolin-7-yl)naphthalen-2-amine]
< 50 nM | [2H]C([2H])(Oc1nc(N2CCOC[C@H]3[C@H](F)[C@H]32)c2cnc(-c3cc(N)cc4ccc(C)c(C#C)c34)c(F)c2n1)[C@@]12CCCN1[C@H](C)[C@H](F)C2 [Example 410, 5-ethynyl-4-(8-fluoro-2-(((2R,3R,7aS)-2-fluoro-3-methyltetrahydro-1H-pyrrolizin-7a(5H)-yl)methoxy-d2)-4-((1S,7S,8S)-8-fluoro-5-oxa-2-azabicyclo[5.1.0]octan-2-yl)pyrido[4,3-d]pyrimidin-7-yl)-6-methylnaphthalen-2-amine]

Same assay, conditions: Homo sapiens, NCI-H441, cellular pERK HTRF, NCI-H441 (KRAS G12V) cells

IC50 | SMILES
< 50 nM | [2H]C([2H])(Oc1nc(N2CCCC[C@H]3[C@H](F)[C@H]32)c2cnc(-c3cc(N)cc4ccc(F)c(C#C)c34)c(C)c2n1)[C@@]12CCCN1C[C@H](F)C2 [Example 460, 5-Ethynyl-6-fluoro-4-(4-((1S,7R,8S)-8-fluoro-2-azabicyclo[5.1.0]octan-2-yl)-2-(((2R,7aS)-2-fluorotetrahydro-1H-pyrrolizin-7a(5H)-yl)methoxy-d2)-8-methylpyrido[4,3-d]pyrimidin-7-yl)naphthalen-2-amine]
< 50 nM | [2H]C([2H])(Oc1nc(N2CCCC[C@H]3[C@H](F)[C@H]32)c2cnc(-c3cc(N)cc4ccc(F)c(C#C)c34)c(C)c2n1)[C@]12CC(=C)CN1CCC21CC1 [Example 458, 5-Ethynyl-6-fluoro-4-(4-((1S,7R,8S)-8-fluoro-2-azabicyclo[5.1.0]octan-2-yl)-8-methyl-2-(((R)-6′-methylenetetrahydrospiro[cyclopropane-1,1′-pyrrolizin]-7a′(5′H)-yl)methoxy-d2)pyrido[4,3-d]pyrimidin-7-yl)naphthalen-2-amine]
< 50 nM | [2H]C([2H])(Oc1nc(N2CCOC[C@H]3[C@H](F)[C@H]32)c2cnc(-c3cc(O)cc4ccc(F)c(C#C)c34)c(F)c2n1)[C@@]12CCCN1[C@H](C)[C@H](F)C2 [Example 472, 5-ethynyl-6-fluoro-4-(8-fluoro-2-(((2R,3R,7aS)-2-fluoro-3-methyltetrahydro-1H-pyrrolizin-7a(5H)-yl)methoxy-d2)-4-((1S,7S,8S)-8-fluoro-5-oxa-2-azabicyclo[5.1.0]octan-2-yl)pyrido[4,3-d]pyrimidin-7-yl)naphthalen-2-ol]

Same assay, conditions: Homo sapiens, NCI-H441, pERK HTRF, NCI-H441 cells (KRAS G12V)

IC50 | SMILES
50 to 500 nM | [2H]C([2H])(Oc1nc(N2CCCO[C@H]3C[C@H]32)c2cnc(-c3ccc(F)c4sc(N)c(C#N)c34)c(F)c2n1)[C@@]12CCCN1C[C@H](F)C2 [Example 39, 4-(4-((1S,7R)-2-Oxa-6-azabicyclo[5.1.0]octan-6-yl)-8-fluoro-2-(((2R,7aS)-2-fluorotetrahydro-1H-pyrrolizin-7a(5H)-yl)methoxy-d2)pyrido[4,3-d]pyrimidin-7-yl)-2-amino-7-fluorobenzo[b]thiophene-3-carbonitrile]

Same assay, conditions: cellular pERK (Thr202/Tyr204) HTRF, NCI-H441 cells

IC50 | SMILES
500 to 10000 nM | [2H]C([2H])(Oc1nc(N2CCOC[C@H]3[C@H](F)[C@H]32)c2cc(C#N)c(-c3cc(N)cc4ccc(F)c(C#C)c34)c(F)c2n1)[C@@]12CCCN1C[C@H](F)C2 (atropisomer, axis not shown; (aS)) [Example 360, (R)-7-(3-amino-8-ethynyl-7-fluoronaphthalen-1-yl)-8-fluoro-4-((1S,7S,8S)-8-fluoro-5-oxa-2-azabicyclo[5.1.0]octan-2-yl)-2-(((2R,7aS)-2-fluorotetrahydro-1H-pyrrolizin-7a(5H)-yl)methoxy-d2)quinazoline-6-carbonitrile]
500 to 10000 nM | [2H]C([2H])(Oc1nc(N2CCOC[C@H]3[C@H](F)[C@H]32)c2cc(Cl)c(-c3cc(N)cc4ccc(F)c(C#C)c34)c(F)c2n1)[C@@]12CCCN1C[C@H](F)C2 (atropisomer, axis not shown; (aS)) [Example 361, 4-((S)-6-chloro-8-fluoro-4-((1S,7S,8S)-8-fluoro-5-oxa-2-azabicyclo[5.1.0]octan-2-yl)-2-(((2R,7aS)-2-fluorotetrahydro-1H-pyrrolizin-7a(5H)-yl)methoxy-d2)quinazolin-7-yl)-5-ethynyl-6-fluoronaphthalen-2-amine]

Same assay, conditions: cellular pERK HTRF, NCI-H441 (KRAS G12V) cells

IC50 | SMILES
500 to 10000 nM | [2H]C([2H])(Oc1nc(N2CCOC[C@H]3[C@H](F)[C@H]32)c2cc(C#N)c(-c3ccc(F)c4sc(N)c(C#N)c34)c(C)c2n1)[C@@]12CCCN1C[C@H](F)C2 (atropisomer, axis not shown; (aS)) [Example 441, (S)-7-(2-amino-3-cyano-7-fluorobenzo[b]thiophen-4-yl)-4-((1S,7S,8S)-8-fluoro-5-oxa-2-azabicyclo[5.1.0]octan-2-yl)-2-(((2R,7aS)-2-fluorotetrahydro-1H-pyrrolizin-7a(5H)-yl)methoxy-d2)-8-methylquinazoline-6-carbonitrile]
